Assay results published in patent US4294833A, “Substituted 4-hydroxy-isophthalic acid picolylamides having a pharmaceutical activity in thromboembolic disorders” (Societa Italo-Britannica, priority 1977, dated 1981).

What was measured:
male Swiss mice = assay: Acute toxicity, intraperitoneal; set-up: acute toxicity (LD50 / DL50): unit: mg/kg; settings: mouse, in vivo
How it was run: (§1)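 Male Swiss mice (20±2 g), fasted 18 h with water ad libitum, were dosed intraperitoneally and observed for 7 days for symptoms and deaths. Preliminary LD50 (mg/kg) was obtained by graphic interpolation.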

[1] = Acute toxicity, intraperitoneal; set-up: acute toxicity (LD50 / DL50): unit: mg/kg; settings: mouse, in vivo, ip, male Swiss mice, intraperitoneal, 7 days observation; preliminary, by graphic interpolation; read-out: acute toxicity (LD50 / DL50)
How it was run: as §1

[2] = tested on: platelet aggregation induced by thrombin; assay: Platelet aggregation inhibitory activity in vivo (Born aggregometer), thrombin-induced; set-up: species or system New Zealand rabbits; settings: dose for 50% inhibition of thrombin-induced aggregation curve, rabbits, intraperitoneal, blood 2, 4 and 6 hours after injection; for ED50: Oryctolagus cuniculus, Platelet, ip, read-out: platelet antiaggregant activity (AAP), DI50, Thrombin
How it was run: (§2)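 Born aggregometry with ADP or thrombin as inducer used citrated PRP, with PPP as blank, from anaesthetized rabbits dosed i.p. Sampling was pre-dose and at 2, 4 and 6 h. The value is the mg/kg dose giving 50% inhibition of the aggregation curve versus each rabbit's own pre-treatment control.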

[3] = tested on: CaCl2-induced plasma coagulation; assay: Anticoagulant activity on PRP, Hartert's thromboelastograph; type: in vivo, New Zealand rabbits; settings: percent increase of total time for coagulum formation (r+k) vs before treatment, 25 mg/kg intraperitoneal, rabbits; for change in vivo at 25 mg/kg: Oryctolagus cuniculus, ip, read-out: anticoagulant activity (AC)
How it was run: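 Thromboelastographic r+k index of PRP, clotted by adding 1.29% CaCl2, compared before and after treatment and expressed as percent increase. Each compound given intraperitoneally at 25 mg/kg.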

[4] = tested on: platelet aggregation induced by ADP; assay: Platelet aggregation inhibitory activity in vivo (Born aggregometer), ADP-induced; set-up: species or system New Zealand rabbits; settings: dose for 50% inhibition of ADP-induced aggregation curve, rabbits, intraperitoneal, blood 2, 4 and 6 hours after injection; for ED50: Oryctolagus cuniculus, Platelet, ip, read-out: platelet antiaggregant activity (AAP), DI50, ADP
How it was run: as §2

[5] = tested on: thrombin-induced coagulation of platelet rich plasma; assay: Antithrombin activity on PRP, Hartert's thromboelastograph; type: in vivo, New Zealand rabbits; settings: percent decrease of index ma/[r+k] vs before treatment, 20 mg/kg intraperitoneal, rabbits; for inhibition in vivo at 20 mg/kg: Oryctolagus cuniculus, Platelet, ip
How it was run: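 Result is expressed as the percent reduction of the thromboelastographic index ma/(r+k) compared with the same index measured before treatment. Treatment was 20 mg/kg of compound i.p., followed by addition of thrombin (60 units, pH 7.4) to the platelet rich plasma.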

blood coagulum = assay: Fibrinolytic activity, Fearnley method (lysis of blood coagulum in toto); type: in vivo; settings: percent decrease of coagulum weight after 30 minutes at 37° C., 25 mg/kg intraperitoneal, rabbits; for fibrinolytic activity (percent decrease of coagulum weight) at 25 mg/kg: Oryctolagus cuniculus, ip, 0.5 h, read-out: fibrinolytic activity (FL)
How it was run: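 Fibrinolysis is expressed as percent loss of clot weight after 30 min at 37 °C, following 30 min on ice. The clots formed from 0.2 ml rabbit ear-vein blood in pH 7.4 phosphate buffer with thrombin (50 NIH units/ml solution). Samples were taken before and after an intraperitoneal dose of 25 mg/kg.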

| Compound | acute toxicity (in words) (male Swiss mice) | LD50 at 168 h [1] [mg/kg] | ED50 [2] [mg/kg] | change in vivo at 25 mg/kg [3] [%] | ED50 [4] [mg/kg] | inhibition in vivo at 20 mg/kg [5] [%] | fibrinolytic activity (percent decrease of coagulum weight) at 25 mg/kg (blood coagulum) [%] | acute toxicity (LD50 / DL50) (male Swiss mice; ip, 10080 min) | platelet antiaggregant activity (AAP), DI50, Thrombin [2] | anticoagulant activity (AC) ([3]; 25 mg/kg) | platelet antiaggregant activity (AAP), DI50, ADP [4] | antithrombin activity (AT) ([5]; 20 mg/kg) | fibrinolytic activity (FL) (blood coagulum; 25 mg/kg) |
| --- | --- | --- | --- | --- | --- | --- | --- | --- | --- | --- | --- | --- | --- |
| CCCCCCCCOc1ccc(C(=O)NCc2cccnc2)cc1C(=O)NCc1cccnc1 [Example 6] | the acute toxicity increases with an increasing number of carbon atoms in the substituent R" | 187 | 19.4 | 16.9 | 25.9 | 45.4 | 36.4 |  |  |  |  |  |  |
| CCCCCCCOc1ccc(C(=O)NCc2cccnc2)cc1C(=O)NCc1cccnc1 [Example 5] | the acute toxicity increases with an increasing number of carbon atoms in the substituent R" | 181 | 18.1 | 18 | 24.6 | 46.5 | 38.8 |  |  |  |  |  |  |
| CCCOc1ccc(C(=O)NCc2cccnc2)cc1C(=O)NCc1cccnc1 [Example 1] | the acute toxicity increases with an increasing number of carbon atoms in the substituent R" | 600 | 19.3 | 21.5 | 27.5 | 38.6 | 32.4 |  |  |  |  |  |  |
| CCCCCCOc1ccc(C(=O)NCc2cccnc2)cc1C(=O)NCc1cccnc1 [Example 4] | the acute toxicity increases with an increasing number of carbon atoms in the substituent R" | 175 | 17.3 | 19.5 | 22.9 | 47.6 | 41.3 |  |  |  |  |  |  |
| C=CCOc1c(Cl)cc(C(=O)NCc2cccnc2)cc1C(=O)NCc1cccnc1 [Example 25] |  | 184 | 35.4 | 15.5 | 59.5 | 40.6 | 25.9 |  |  |  |  |  |  |
| CC=COc1c(Cl)cc(C(=O)N(Cc2cccnc2)C(CC)CC)cc1C(=O)N(Cc1cccnc1)C(CC)CC [Example 50] |  | 198 | 33.8 | 13.8 | 52.2 | 27.6 | 24.6 |  |  |  |  |  |  |
| COc1ccc(C(=O)N(Cc2cccnc2)C(C)C)cc1C(=O)N(Cc1cccnc1)C(C)C [Example 43] |  | 478 | 20.6 | 20.7 | 27.3 | 39.4 | 33.6 |  |  |  |  |  |  |
| C=C(C)Oc1c(Cl)cc(C(=O)N(C)Cc2cccnc2)cc1C(=O)N(C)Cc1cccnc1 [Example 52] |  | 194 | 32.1 | 14.2 | 49.2 | 29.1 | 26.7 |  |  |  |  |  |  |
| CCC(C)(C)Oc1c(Cl)cc(C(=O)NCc2cccnc2)cc1C(=O)NCc1cccnc1 [Example 38] |  |  |  |  |  |  |  | 322 | 34,6 mg/kg | 12,9% | 54,3 mg/kg | 22,0% | 19,3% |
| CC=CCOc1ccc(C(=O)NCc2cccnc2)cc1C(=O)NCc1cccnc1 [Example 11] |  | 178 | 18.6 | 13.5 | 25.3 | 52.3 | 44.2 |  |  |  |  |  |  |
| CC(C)(C)Oc1ccc(C(=O)NCc2cccnc2)cc1C(=O)NCc1cccnc1 [Example 16] |  | 325 | 30.3 | 13.6 | 45.2 | 27.6 | 21.9 |  |  |  |  |  |  |
| CCOc1ccc(C(=O)N(CCC(C)C)Cc2cccnc2)cc1C(=O)N(CCC(C)C)Cc1cccnc1 [Example 45] |  | 460 | 22.3 | 16.3 | 30.6 | 35.8 | 29.9 |  |  |  |  |  |  |
| CC=COc1c(Cl)cc(C(=O)N(Cc2cccnc2)C(C)(C)CC)cc1C(=O)N(Cc1cccnc1)C(C)(C)CC [Example 47] |  | 210 | 36.2 | 12.8 | 55.8 | 25.6 | 19.5 |  |  |  |  |  |  |
| C=C(C)COc1ccc(C(=O)N(CCC)Cc2ccncc2)cc1C(=O)N(CCC)Cc1ccncc1 [Example 70] |  | 360 | 20.8 | 18.9 | 30.6 | 48.2 | 39.3 |  |  |  |  |  |  |
| CCCCOc1c(Cl)cc(C(=O)NCc2cccnc2)cc1C(=O)NCc1cccnc1 [Example 26] |  | 205 | 30.2 | 22.2 | 43.7 | 33.5 | 28.4 |  |  |  |  |  |  |
| COc1ccc(C(=O)N(C)Cc2cccnc2)cc1C(=O)N(C)Cc1cccnc1 [Example 39] |  | 610 | 42 | 12.5 | 59.8 | 26.6 | 19.2 |  |  |  |  |  |  |
| COc1cc(C(=O)NCc2cccnc2)cc(C(=O)NCc2cccnc2)c1OC1CCC1 [Example 19] |  | 254 | 25.2 | 15.6 | 34.7 | 32.8 | 28.1 |  |  |  |  |  |  |
| CCC(C)Oc1ccc(C(=O)NCc2cccnc2)cc1C(=O)NCc1cccnc1 (stereo not shown) [Example 14] |  | 227 | 29.7 | 22.3 | 46.4 | 38.1 | 22.5 |  |  |  |  |  |  |
